Measured values published in patent US8569302B2, “Inhibitors of flaviviridae viruses” (Gilead Sciences, Inc., priority 2009, dated 2013).

System: human hepatoma Huh-7 cell line harboring a HCV replicon
Assay: HCV replicon assay (inhibition of viral replication, luciferase readout)
Type: cell-based
Settings: Hepatitis C virus, 72 h, Huh-7 HCV replicon cells, 3 days incubation
Summary of the method: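 Read-outs: luciferase luminescence for replication inhibition, corrected by ITMN-191 (100% inhibition) wells, and calcein AM fluorescence for cytotoxicity. Cells were treated for 3 days at 37 °C with ten 3-fold compound dilutions in 0.44% final DMSO. Percent inhibition relative to DMSO was fitted with a Hill equation to give EC50 and CC50.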

SMILES | inhibition at 2 µM
Cn1nnnc1[S+]([O-])[C@H]1CC[C@H](N(c2cc(C#CC(C)(C)C)sc2C(=O)O)C(=O)[C@H]2CC[C@H](C)CC2)CC1 (stereo partly drawn) [Compound 111, 5-(3,3-Dimethylbut-1-ynyl)-3-((1r,4S)-4-methyl-N-(4-((R)-1-methyl-1H-tetrazol-5-ylsulfinyl)cyclohexyl)cyclohexanecarboxamido)thiophene-2-carboxylic acid] | 99.8%
CC1=CCC(C(=O)N(c2cc(C#CC(C)(C)C)sc2C(=O)O)[C@H]2CC[C@H](O[C@H]3CCOC3)CC2)[C@H](C)C1 (stereo partly drawn) [Compound 304, 5-(3,3-dimethyl-but-1-ynyl)-3-{(4,6R-dimethyl-cyclohex-3-enecarbonyl)-[4-(tetrahydro-furan-3S-yloxy)-trans-cyclohexyl]-amino}-thiophene-2-carboxylic acid] | 100%
Cc1nnc(S[C@H]2CC[C@H](N(c3cc(C#CC(C)(C)C)sc3C(=O)O)C(=O)[C@H]3CC[C@H](C)CC3)CC2)s1 [Compound 102, 5-(3,3-Dimethylbut-1-ynyl)-3-(4-methyl-N-(4-(5-methyl-1,3,4-thiadiazol-2-ylthio)cyclohexyl)cyclohexanecarboxamido)thiophene-2-carboxylic acid] | 99.9%
CC(C)(C)C#Cc1cc(N(C(=O)[C@H]2CC[C@H](C)CC2)[C@H]2C[C@@H](Oc3ccccn3)C2)c(C(=O)O)s1 [Compound 146, 5-(3,3-Dimethylbut-1-ynyl)-3-(4-methyl-N-(3-(pyridin-2-yloxy)cyclobutyl)cyclohexanecarboxamido)thiophene-2-carboxylic acid] | 99.2%
CC1CCC(C(=O)N(c2cc(C#CC(C)(C)COC3CCCCO3)sc2C(=O)O)C2CCC(Oc3ccccn3)CC2)CC1 (stereo not drawn) [Compound 311, 5-[3,3-Dimethyl-4-(tetrahydro-pyran-2-yloxy)-but-1-ynyl]-3-{(4-methyl-cyclohexanecarbonyl)-[4-(pyridin-2-yloxy)-cyclohexyl]-amino}-thiophene-2-carboxylic acid] | 95.2%
CC(C)(C)C#Cc1cc(N(C(=O)[C@H]2CC[C@H](C)CC2)[C@H]2CC[C@@H](Sc3nccs3)CC2)c(C(=O)O)s1 [Compound 107, 5-(3,3-Dimethylbut-1-ynyl)-3-(4-methyl-N-(4-(thiazol-2-ylthio)cyclohexyl)cyclohexanecarboxamido)thiophene-2-carboxylic acid] | 98.9%
Cn1nnnc1S[C@H]1CC[C@H](N(c2cc(C#CC(C)(C)C)sc2C(=O)O)C(=O)[C@H]2CC[C@H](C)CC2)CC1 [Compound 101, 5-(3,3-Dimethylbut-1-ynyl)-3-(4-methyl-N-(4-(1-methyl-1H-tetrazol-5-ylthio)cyclohexyl)cyclohexanecarboxamido)thiophene-2-carboxylic acid] | 100%
Cc1nsc(OC2CCC(N(c3cc(C#CC(C)(C)C)sc3C(=O)O)C(=O)[C@H]3CC[C@H](C)CC3)CC2)n1 (stereo partly drawn) [Compound 154, 5-(3,3-Dimethylbut-1-ynyl)-3-(4-methyl-N-(4-(3-methyl-1,2,4-thiadiazol-5-yloxy)cyclohexyl)cyclohexanecarboxamido)thiophene-2-carboxylic acid] | 99.7%
CC(C)(C)C#Cc1cc(N(C(=O)[C@H]2CC[C@H](C)CC2)[C@H]2CC[C@H](O[C@@H]3CCN(C(=O)OC(C)(C)C)C3)CC2)c(C(=O)O)s1 [Compound 230, 3-(N-(4-((R)-1-(tert-butoxycarbonyl)pyrrolidin-3-yloxy)cyclohexyl)-4-methylcyclohexanecarboxamido)-5-(3,3-dimethylbut-1-ynyl)thiophene-2-carboxylic acid] | 98.4%
CC(C)(C)C#Cc1cc(N(C(=O)[C@H]2CC[C@H](C)CC2)[C@H]2CC[C@H](O[C@H]3CCNC3)CC2)c(C(=O)O)s1 [Compound 226, 5-(3,3-dimethylbut-1-ynyl)-3-(4-methyl-N-(4-((S)-pyrrolidin-3-yloxy)cyclohexyl)cyclohexanecarboxamido)thiophene-2-carboxylic acid] | 99.9%
CC(C)(C)C#Cc1cc(N(C(=O)[C@H]2CC[C@H](C)CC2)[C@H]2CC[C@H](Oc3nccc(=O)[nH]3)CC2)c(C(=O)O)s1 [Compound 326, 5-(3,3-Dimethyl-but-1-ynyl)-3-{(4-methyl-cyclohexanecarbonyl)-[4-(6-oxo-1,6-dihydro-pyrimidin-2-yloxy)-cyclohexyl]-amino}-thiophene-2-carboxylic acid] | 99.9%
Cc1ccc(O[C@H]2CC[C@H](N(c3cc(C#CC(C)(C)C)sc3C(=O)O)C(=O)[C@H]3CC[C@H](C)CC3)CC2)nn1 [Compound 3, 5-(3,3-Dimethyl-but-1-ynyl)-3-{(trans-4-methyl-cyclohexanecarbonyl)-[trans-4-(6-methyl-pyridazin-3-yloxy)-cyclohexyl]-amino}-thiophene-2-carboxylic acid] | 100%
C[C@@H]1CC[C@@H](C(=O)N(c2cc(C#CC(C)(C)C)sc2C(=O)O)[C@H]2CC[C@@H](OC3CCOC3)CC2)[C@@H](O)C1 (single isomer, unassigned) [Compound 228] | 99.9%
CC(C)(C)C#Cc1cc(N(C(=O)[C@H]2CC[C@H](C)CC2)[C@H]2CCN(S(=O)(=O)c3cnc(=O)[nH]c3)C2)c(C(=O)O)s1 [Compound 214, 5-(3,3-Dimethyl-but-1-ynyl)-3-{(4-methyl-cyclohexanecarbonyl)-[1-(2-oxo-1,2-dihydro-pyrimidine-5-sulfonyl)-pyrrolidin-3-yl]-amino}-thiophene-2-carboxylic acid] | 69.9%
CC(C)(C)C#Cc1cc(N(C(=O)[C@H]2CC[C@H](C)CC2)[C@H]2CC[C@H](OC3CCNCC3)CC2)c(C(=O)O)s1 [Compound 223, 5-(3,3-dimethylbut-1-ynyl)-3-(4-methyl-N-(4-(piperidin-4-yloxy)cyclohexyl)cyclohexanecarboxamido)thiophene-2-carboxylic acid] | 100%
Cc1ccc(O[C@H]2CC[C@H](N(c3cc(C#CC(C)(C)C)sc3C(=O)O)C(=O)[C@H]3CC[C@H](C)CC3)CC2)cn1 [Compound 7, 5-(3,3-Dimethyl-but-1-ynyl)-3-{(trans-4-methyl-cyclohexanecarbonyl)-[trans-4-(6-methyl-pyridin-3-yloxy)-cyclohexyl]-amino}-thiophene-2-carboxylic acid] | 99.8%
CC(C)(C)C#Cc1cc(N(C(=O)[C@H]2CC[C@H](C)CC2)[C@H]2CC[C@H](OC3CCN(C(=O)OC(C)(C)C)CC3)CC2)c(C(=O)O)s1 [Compound 222, 3-(N-(4-(1-(tert-butoxycarbonyl)piperidin-4-yloxy)cyclohexyl)-4-methylcyclohexanecarboxamido)-5-(3,3-dimethylbut-1-ynyl)thiophene-2-carboxylic acid] | 97.7%
C[C@H]1CC[C@H](C(=O)N(c2cc(C#CC3(C(F)(F)F)CC3)sc2C(=O)O)[C@H]2CC[C@H](OC3CCOC3)CC2)CC1 (stereo partly drawn) [Compound 345, 3-((1r,4R)-4-methyl-N-((1r,4R)-4-(tetrahydrofuran-3-yloxy)cyclohexyl)cyclohexanecarboxamido)-5-(2-(1-(trifluoromethyl)cyclopropyl)ethynyl)thiophene-2-carboxylic acid] | 100%
